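Compound exposure: 48 hours, 5 concentrations, 96-well plates. At the GI50, growth is halved.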 The source made the active and inactive calls. No stated cut-off is given here; in the data, active = GI50 up to about 1.1 µM and inactive = higher.
Experiments:
Assay in all cases: growth of human tumour cells (NCI), 48 h
[1] = system: 786-0
[2] = system: A498
[3] = system: ACHN
[4] = system: HOP-92
[5] = system: HT-29
[6] = system: IGROV-1
[7] = system: K562
[8] = system: KM12
[9] = system: Malme-3M
[10] = system: NCI-H23
[11] = system: NCI-H460
[12] = system: OVCAR-8
[13] = system: SF-268
[14] = system: SF-295
[15] = system: SK-MEL-2
[16] = system: SK-MEL-5
[17] = system: CCRF-CEM

Measured: GI50

C=C(C)CC(C(=O)O)c1ccc(C)cc1 (configuration not stated)
inactive: [1] > 100 µM | [2] > 100 µM | [3] > 100 µM | [4] > 100 µM | [5] > 100 µM | [6] > 100 µM | [7] > 100 µM | [8] > 100 µM | [9] > 100 µM | [10] > 100 µM | [11] > 100 µM | [12] > 100 µM | [13] > 100 µM | [14] > 100 µM | [15] > 100 µM | [16] > 100 µM

NC(=O)/N=C1\NC(Cc2ccccc2)C(=O)N1Cc1ccccc1 (configuration not stated)
inactive: [1] > 100 µM | [3] 80.4 µM | [17] > 100 µM | [5] > 100 µM | [6] > 100 µM | [7] > 100 µM | [8] > 100 µM | [10] > 100 µM | [11] > 100 µM | [12] > 100 µM | [13] > 100 µM | [14] > 100 µM | [16] > 100 µM

Cc1c2ncccc2c(C)c2c1[nH]c1ccccc12
inactive: [1] 9.38 µM | [2] 12.5 µM | [3] 12.9 µM | [17] 10.2 µM | [4] 7.98 µM | [5] 11.3 µM | [6] 12.3 µM | [7] 14.5 µM | [8] 10.3 µM | [9] 15.1 µM | [10] 11.1 µM | [11] 5.18 µM | [12] 10.5 µM | [13] 13.8 µM | [14] 8.57 µM | [15] 22.9 µM

S=C1OC2CCCC[C@H]2O1 (some centres not stated)
inactive: [1] > 100 µM | [3] > 100 µM | [17] > 100 µM | [4] > 100 µM | [5] > 100 µM | [6] > 100 µM | [7] > 100 µM | [8] > 100 µM | [10] > 100 µM | [11] > 100 µM | [12] > 100 µM | [13] > 100 µM | [14] > 100 µM | [15] > 100 µM | [16] > 100 µM

O=C(c1ccccc1)c1nnc(C(=O)c2ccccc2)nn1
inactive: [1] 179 µM | [3] > 344 µM | [17] 265 µM | [4] 166 µM | [5] > 344 µM | [6] > 344 µM | [7] 119 µM | [8] > 344 µM | [9] > 344 µM | [10] 308 µM | [11] > 344 µM | [12] > 344 µM | [13] > 344 µM | [14] 139 µM | [15] > 344 µM | [16] > 344 µM

COc1ccc(/C(=C/n2ccnc2)C(O)c2ccc(OC)c(OC)c2)cc1OC (configuration not stated)
inactive: [1] > 100 µM | [2] 68.9 µM | [17] 26.7 µM | [4] 30.6 µM | [5] > 100 µM | [6] > 100 µM | [7] 37.2 µM | [8] > 100 µM | [10] > 100 µM | [11] 71.6 µM | [12] > 100 µM | [13] > 100 µM | [14] > 100 µM | [15] > 100 µM

CC1=NC(C(C)C)C(=O)O1 (configuration not stated)
inactive: [1] 58.1 µM | [2] > 100 µM | [3] > 100 µM | [17] > 100 µM | [4] > 100 µM | [5] 61.1 µM | [6] > 100 µM | [7] 61.1 µM | [8] > 100 µM | [9] > 100 µM | [10] > 100 µM | [11] > 100 µM | [12] > 100 µM | [13] 45.1 µM | [14] > 100 µM | [16] > 100 µM

O=C(O)C(CS)Nc1c2ccccc2[n+]([O-])c2ccccc12 (configuration not stated)
inactive: [1] > 100 µM | [2] > 100 µM | [3] > 100 µM | [17] > 100 µM | [5] > 100 µM | [6] > 100 µM | [7] 78.9 µM | [8] > 100 µM | [9] > 100 µM | [10] 87.7 µM | [11] > 100 µM | [12] > 100 µM | [13] > 100 µM | [14] > 100 µM | [15] > 100 µM | [16] 76 µM

Cc1ccc2ccc(-c3ccccc3)c3c2c1C(=O)c1ccccc1C3=O
inactive: [1] 36.5 µM | [2] 74 µM | [3] 58.5 µM | [17] > 100 µM | [4] 26.1 µM | [5] > 100 µM | [6] > 100 µM | [7] > 100 µM | [8] > 100 µM | [9] > 100 µM | [10] > 100 µM | [12] 72.4 µM | [13] 45.5 µM | [14] 93.1 µM | [15] > 100 µM | [16] 53.6 µM

COC1CCCc2c(OC(C)=O)ccc(OC(C)=O)c21 (configuration not stated)
inactive: [1] > 100 µM | [3] > 100 µM | [4] 19.6 µM | [6] > 100 µM | [7] > 100 µM | [8] > 100 µM | [9] > 100 µM | [10] > 100 µM | [13] > 100 µM | [15] > 100 µM | [16] > 100 µM

C=C[C@@]1(C)CCC2(O)C(CCC3C2(C)CCC[C@@]3(C)COC(=O)CC(=O)OC)C1 (some centres not stated)
inactive: [1] 35.6 µM | [3] 40.1 µM | [17] 32.7 µM | [5] 18.9 µM | [6] 26.5 µM | [7] 22.4 µM | [8] 18.1 µM | [9] 17.7 µM | [10] 20.6 µM | [11] 34.3 µM | [12] 23.1 µM | [13] 22.5 µM | [16] 18 µM

O=C(O)c1ccccc1NS(=O)(=O)c1ccc(Cl)cc1
inactive: [1] > 100 µM | [3] > 100 µM | [17] > 100 µM | [4] 19 µM | [5] > 100 µM | [6] > 100 µM | [7] > 100 µM | [9] > 100 µM | [10] > 100 µM | [11] > 100 µM | [12] > 100 µM | [13] > 100 µM | [15] > 100 µM | [16] > 100 µM

C=C1C(=O)O[C@H]2[C@H]1[C@H](OC(=O)/C(C)=C\C)CC(=C)[C@@H]1[C@H](O)[C@H]3O[C@@]3(C)[C@@]12O [EUPATUNDIN]
inactive: [1] > 100 µM | [3] > 100 µM | [17] > 100 µM | [4] > 100 µM | [5] > 100 µM | [6] > 100 µM | [7] > 100 µM | [8] > 100 µM | [9] > 100 µM | [10] > 100 µM | [11] > 100 µM | [12] > 100 µM | [13] > 100 µM | [14] > 100 µM | [15] > 100 µM | [16] > 100 µM
